From patent publication US10253071B2, “Selectin inhibitors, composition, and uses related thereto” (Beth Israel Deaconess Medical Center, Inc., priority 2014, dated 2019)
Square brackets hold non-standard residues; d marks the D form. Peptide text beside a SMILES is read from it. * marks the point of attachment. X1 = CC(=O)N[C@@H]1[C@@H](O[C@@H]2O[C@H](CO)[C@H](O)[C@H](O)[C@H]2O)[C@@H](O)[C@@H](CO[C@@H]2O[C@H](CO)[C@@H](O[C@@H]3O[C@H](CO)[C@H](O)[C@H](O[C@]4(C(=O)O)C[C@H](O)[C@@H](NC(C)=O)[C@H]([C@H](O)[C@H](O)CO)O4)[C@H]3O)[C@H](O[C@@H]3O[C@@H](C)[C@@H](O)[C@@H](O)[C@@H]3O)[C@H]2NC(C)=O)O[C@@H]1*; Phe(4-CH2SO3H) = N[C@@H](Cc1ccc(CS(=O)(=O)O)cc1)C(=O)O; Mca = COc1ccc2c(CC(=O)*)cc(=O)oc2c1

How the values were obtained:
[1] = target: T1, E-selectin (E-sel-Ig) (Homo sapiens, UniProt P16581); test: Biacore binding assay, E-selectin; conditions: compared with P-selectin
T1 sequence (P16581 22-610): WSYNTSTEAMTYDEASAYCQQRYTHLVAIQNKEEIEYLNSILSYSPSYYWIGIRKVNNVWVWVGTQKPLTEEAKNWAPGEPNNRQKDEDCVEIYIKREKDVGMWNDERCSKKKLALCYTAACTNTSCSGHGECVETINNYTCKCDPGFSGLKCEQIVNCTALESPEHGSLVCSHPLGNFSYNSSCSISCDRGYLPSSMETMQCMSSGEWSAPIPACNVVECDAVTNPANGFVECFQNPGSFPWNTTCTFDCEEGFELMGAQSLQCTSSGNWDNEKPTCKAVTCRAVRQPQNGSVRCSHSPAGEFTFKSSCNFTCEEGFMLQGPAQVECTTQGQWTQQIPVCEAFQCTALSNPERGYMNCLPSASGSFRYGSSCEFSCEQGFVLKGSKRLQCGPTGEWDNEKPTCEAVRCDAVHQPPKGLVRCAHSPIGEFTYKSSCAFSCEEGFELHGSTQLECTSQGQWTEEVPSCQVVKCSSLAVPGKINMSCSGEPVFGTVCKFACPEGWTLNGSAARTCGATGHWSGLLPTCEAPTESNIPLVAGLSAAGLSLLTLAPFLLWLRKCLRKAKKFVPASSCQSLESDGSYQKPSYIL
Method: (§1) Dissociation constants (Kd) were determined using a Biacore binding assay after initial capture of biotinylated GS(n)P-6 onto streptavidin-coated sensor chips followed by flow through of P-, L- or E-sel-Ig (2.5 to 60 μg/mL). […] The Kd of GSnP-6 to murine P-selectin was ˜9-fold lower than to human P-selectin.

[2] = target: T2, human P-selectin (Homo sapiens, UniProt P16109); test: Biacore binding assay, human P-selectin
T2 sequence (P16109 42-830): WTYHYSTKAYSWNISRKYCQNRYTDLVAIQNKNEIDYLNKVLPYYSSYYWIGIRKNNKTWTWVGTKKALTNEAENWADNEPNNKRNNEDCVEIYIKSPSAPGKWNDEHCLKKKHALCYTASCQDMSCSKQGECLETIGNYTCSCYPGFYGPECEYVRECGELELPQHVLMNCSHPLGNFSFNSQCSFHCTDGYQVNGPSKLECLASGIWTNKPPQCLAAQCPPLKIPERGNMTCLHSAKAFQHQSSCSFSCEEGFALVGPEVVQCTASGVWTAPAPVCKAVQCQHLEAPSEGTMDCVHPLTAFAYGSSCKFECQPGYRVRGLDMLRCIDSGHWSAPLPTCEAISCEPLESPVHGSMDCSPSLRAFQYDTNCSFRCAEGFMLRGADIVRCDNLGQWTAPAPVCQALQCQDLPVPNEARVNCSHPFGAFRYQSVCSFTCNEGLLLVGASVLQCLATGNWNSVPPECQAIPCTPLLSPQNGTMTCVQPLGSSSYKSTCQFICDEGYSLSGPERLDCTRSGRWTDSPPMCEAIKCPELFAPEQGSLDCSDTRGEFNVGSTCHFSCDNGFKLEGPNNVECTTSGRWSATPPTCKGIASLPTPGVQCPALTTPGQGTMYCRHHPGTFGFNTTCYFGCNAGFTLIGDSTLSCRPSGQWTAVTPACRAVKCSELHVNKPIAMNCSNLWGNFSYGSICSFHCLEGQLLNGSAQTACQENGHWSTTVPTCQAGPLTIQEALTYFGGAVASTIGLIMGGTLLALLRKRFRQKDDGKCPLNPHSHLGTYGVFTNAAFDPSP
Method: (§2) Bound peptides were detected using Alexa-488 labeled anti-human IgG antibody (5 μg/mL). Three lectins RCA-1, AAL, and PNA were used to confirm the sequence of enzymatic steps. Monoclonal antibodies CHO131, PSG2 antibody and PL-1 were used to confirm the presence of SLex, tyrosine sulfates, and the peptide sequence, respectively. Biacore binding analysis to human P-selectin with observed rate constants for (D) GSnP-6, kon 3.1×10^5 M^−1s^−1, koff 6.9×10^3 M^−1s^−; GSn2P-6, kon6.4×10^5 M^−1s^−1, koff 6.8×10^3 M^−1s. Biacore binding analysis to mouse P-selectin with observed rate constants for (E) GsnP-6, kon 4.9×10^4 M^−1s^−1, koff 8.0×10^3 M^−1s^−; GSn2P-6 kon 5.3×10^4 M^−1s^−1, koff 9.0×10^3 M^−1s. (F) Temperature- and pH-dependent stability studies of GSnP-6.
as §1

[3] = system: P-selectin (recombinant Ig chimera); test: Microarray binding screen of glycopeptide mimics, P-selectin; parameters: species or system human and mouse; conditions: selectin Ig chimeras 5-20 μg/mL, Alexa-488 anti-human IgG
Method: as §2
Binding affinities of PSGL-1 mimics towards selectins was initially screened using a microarray in which glycosulfopeptides and glycan standards (Sialyl Le^x, NA2, NA2,3, NA2,6 and LNnT) were printed on a NHS-activated glass slide. The slide was then incubated with recombinant Ig chimeras of P-, L-, or E-selectin (5-20 μg/mL) followed by Alexa-488 labeled anti-human IgG antibody (5 μg/mL). […] Binding of glycopeptides mimics to selectins was […] dependent and inhibited by EDTA.

[4] = target: T3, L-selectin (L-sel-Ig) (Homo sapiens, UniProt P14151); test: Biacore binding assay, L-selectin; conditions: compared with P-selectin
T3 sequence (P14151 39-372): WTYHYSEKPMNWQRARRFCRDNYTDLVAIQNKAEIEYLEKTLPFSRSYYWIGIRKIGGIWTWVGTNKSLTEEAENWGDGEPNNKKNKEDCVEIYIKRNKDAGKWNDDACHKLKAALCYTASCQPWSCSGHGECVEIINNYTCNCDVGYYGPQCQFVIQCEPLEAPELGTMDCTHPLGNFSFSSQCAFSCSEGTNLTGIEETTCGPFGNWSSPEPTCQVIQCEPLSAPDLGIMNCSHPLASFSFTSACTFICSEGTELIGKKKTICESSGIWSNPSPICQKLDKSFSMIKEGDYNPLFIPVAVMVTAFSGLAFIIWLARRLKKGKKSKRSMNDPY
Method: as §1

With COc1ccc2c(CC(=O)NCCCC[C@H](N)C(=O)N[C@@H](CCC(=O)O)C(=O)N[C@@H](Cc3ccc(CS(=O)(=O)O)cc3)C(=O)N[C@@H](CCC(=O)O)C(=O)N[C@@H](Cc3ccc(CS(=O)(=O)O)cc3)C(=O)N[C@@H](CC(C)C)C(=O)N[C@@H](CC(=O)O)C(=O)N[C@@H](Cc3ccc(CS(=O)(=O)O)cc3)C(=O)N[C@@H](CC(=O)O)C(=O)N[C@@H](Cc3ccccc3)C(=O)N[C@@H](CC(C)C)C(=O)N3CCC[C@H]3C(=O)N[C@@H](CCC(=O)O)C(=O)N[C@H](C(=O)N[C@@H](CCC(=O)O)C(=O)N3CCC[C@H]3C(=O)N[C@@H](CC(C)C)C(=O)O)[C@@H](C)O[C@H]3O[C@H](CO[C@@H]4O[C@H](CO)[C@@H](O[C@@H]5O[C@H](CO)[C@H](O)[C@H](O[C@]6(C(=O)O)C[C@H](O)[C@@H](NC(C)=O)[C@H]([C@H](O)[C@H](O)CO)O6)[C@H]5O)[C@H](O[C@@H]5O[C@@H](C)[C@@H](O)[C@@H](O)[C@@H]5O)[C@H]4NC(C)=O)[C@H](O)[C@H](O[C@@H]4O[C@H](CO)[C@H](O)[C@H](O)[C@H]4O)[C@H]3NC(C)=O)cc(=O)oc2c1 [GSnP-6] (H-K(Mca)E[Phe(4-CH2SO3H)]E[Phe(4-CH2SO3H)]LD[Phe(4-CH2SO3H)]DFLPET(X1)EPL-OH) the “apparent affinity to E-selectin” value [1] was “even lower apparent affinity”, the koff ([2]; Biacore observed rate constant) was 0.0069 s⁻¹ and the kon ([2]; Biacore observed rate constant) was 310000 M⁻¹ s⁻¹. For the same molecule, the Kd ([2]; biotinylated GS(n)P-6 captured on streptavidin chip, P-sel-Ig 2.5 to 60 μg/mL, read-out: Dissociation constant (Kd) to human P-selectin) was 0.022 µM, the “binding to P-selectin compared with E- or L-selectin” value [3] was “bound to P-selectin more strongly than to E- or L-selectin” and the “apparent affinity to L-selectin” value [4] was “even lower apparent affinity”.
